# Read-outs that look alike come from different tables or passages of the source.
# Legend:
# [1] = test system: αSyn dimerization in Neuro2A cells; experiment: α-Synuclein dimerization assay (split Gaussia luciferase PCA); format: cell-based, mouse
# [2] = test system: HEK-293 cells stably expressing GFP-LC3B; experiment: Autophagic flux assay (GFP signal); format: cell-based, human
# [3] = test system: αSyn dimerization in Neuro2A cells; conditions: luminescence signal percentage of DMSO control with SEM, cited from earlier work
# [4] = test system: HEK-293 cells stably expressing GFP-LC3B; conditions: GFP signal percentage of DMSO control with SEM, ref 16 or 19; cited from earlier work
compound,measurement,setting,value
"CC(C)c1nc(CCc2c[nH]c3ccccc23)sc1N1CCCC1 [Compound 16k, 2-(2-(1H-Indol-3-yl)ethyl)-4-isopropyl-5-(pyrrolidin-1-yl)thiazole]",effect on αSyn dimerization (in words),"[1]; 10 μM, SAR discussion",loss of activity
same,effect on autophagy (in words),"[2]; 10 μM, SAR discussion",loss of activity
C[C@H](NC(=O)CCCc1ccccc1)C(=O)N1CCC[C@H]1c1nnn[nH]1 [HUP-28],αSyn dimerization at 10 μM,[3]; ref 16 or 19,75 ± 5%
same,autophagy at 10 μM,[4],71 ± 6%
"Cc1nc(CCCc2ccccc2)sc1N1CCC[C@H]1C#N [HUP-46, (S)-1-(4-Methyl-2-(3-phenylpropyl)thiazol-5-yl)pyrrolidine-2-carbonitrile]",concentration of maximal efficacy in the αSyn dimerization assay,[1],10 µM
same,"autophagic flux, concentration–response",[2],concentration-dependent up to 20 μM
Cc1nc(CCCc2ccccc2)oc1N1CCC[C@H]1C#N [HUP-55],αSyn dimerization at 10 μM,[3],85 ± 2%
CO[C@H]1C[C@@H]2CC[C@@H](C)[C@@](O)(O2)C(=O)C(=O)N2CCCC[C@H]2C(=O)O[C@H]([C@H](C)C[C@@H]2CC[C@@H](O)[C@H](OC)C2)CC(=O)[C@H](C)/C=C(\C)[C@@H](O)[C@@H](OC)C(=O)[C@H](C)C[C@H](C)/C=C/C=C/C=C/1C [Rapamycin],GFP signal of the baseline,"[2]; rapamycin positive control (0.5 μM), maximum effect in this assay",about 65%
